The subject of one assay is all bacteria tested. Description: In vitro antimicrobial susceptibility, whole panel. The class given is cell-based.
In a further assay the test system is S. pyogenes. Description: Kirby-Bauer disc diffusion antimicrobial susceptibility. The class given is cell-based. The settings on record: 100 mM, carrier water. (In agar diffusion tests the substance spreads into inoculated agar from a disc or well.)
The subject of another assay is S. aureus 6538. Described as above. The conditions noted are these: 100 mM, carrier water; 18-24 hours for aerobes. The class given is cell-based.
The next assay relates to C difficile. Described as above. It is filed as cell-based. The settings on record: 100 mM, carrier water; 48 hours for anaerobes.
Another assay relates to S. aureus 33591 (MRSA). The assay is described as above. The settings on record: 100 mM, carrier water; 18-24 hours for aerobes. The class given is cell-based, Staphylococcus aureus.
The subject of the next assay is S. mutans. The description is as above. The class given is cell-based. The conditions noted are these: 100 mM, carrier water.
A further assay deals with C. perfringens. It is filed as cell-based. The conditions noted are these: 100 mM, carrier water.
Assay [1] has as its system Pseudomonas aeruginosa ATCC9027. Nature of the assay: Paper disc test with water or propylene glycol, Example 10.
For assay [2], the system named is Staphylococcus aureus ATCC33591 (MRSA). The description is as above.
For assay [3], the system named is Aureobasidium pullulans, ATCC 15233. Nature of the assay: In vitro test of 2, 4, 6 Trihydroxybenzaldehyde against a fungi. The class given is cell-based. The conditions noted are these: 100 mM.
For a further assay, the system named is P. aeruginosa. Description: Kirby-Bauer disc diffusion antimicrobial susceptibility. The class given is cell-based, Pseudomonas aeruginosa. The settings on record: 100 mM, carrier water; 18-24 hours for aerobes.
Assay [4] deals with Staphylococcus epidermidis ATCC 51625 (MRSE). Description: In vitro antimicrobial test (FIG. 32). The class given is cell-based.
A further assay concerns Legionella 43662. The class given is cell-based.
A further assay concerns K. pneumoniae. Nature of the assay: Kirby-Bauer disc diffusion antimicrobial susceptibility. It is filed as cell-based. The conditions noted are these: 100 mM, carrier water; 18-24 hours for aerobes.
Assay [5] relates to E. coli, ATTC 8739 and ATCC 43895. The description is as above. The class given is cell-based. The conditions noted are these: 100 mM, carrier water; 18-24 hours for aerobes.

Results on 5 compounds are retold here after patent publication US20200222347A1, “ANTIMICROBIALS AND METHODS OF USE THEREOF” (priority 2013, published 2020).

The zone of inhibition is the size of the clear area around the sample on an inoculated plate.

“And” between values parts separate entries of the source, which are not always exact repeats. Equal values may be shown once.

As for `COc1cc(C(=O)O)ccc1O` [vanillic acid], the “antibiotic properties (summary)” value in the assay on all bacteria tested is “little activity”.
Regarding `Oc1cc(O)c2cc(O)c(-c3ccc(O)c(O)c3)[o+]c2c1.[Cl-]` [Cyanidin CI, cyanidin chloride], the “effectiveness against S. pyogenes” value with S. pyogenes is listed as “effective”. Moreover, in the assay on S. aureus 6538, the “effectiveness against S. aureus 6538” value is “effective”. Moreover, the “effectiveness against C. difficile (growth inhibition)” value in the assay with C difficile is recorded as “effective”. For the same compound, the “effectiveness against S. aureus 33591 (MRSA)” value in the assay on S. aureus 33591 (MRSA) was “effective”. Also, the “effectiveness against S. mutans” value in the assay on S. mutans is “effective”. For the same compound, in the assay on all bacteria tested, the “antibiotic properties (summary)” value is given as “limited antibiotic properties”. Also, in the assay on C. perfringens, the “effectiveness against C. perfringens (growth inhibition)” value was “effective”.
Consider `O=Cc1c(O)cc(O)cc1O` [2, 4, 6 Trihydroxybenzaldehyde, 2, 4, 6 trihydroxybenzaldehyde], for which the “inhibition of growth under the sample” value in [1] (PPG), in [1] (Water), in [2] (PPG) and in assay [2] (Water) was “I” each time. Also, the zone of inhibition in [1] (PPG) is 3 mm; in assay [1] (Water, listed as 246 THBA), 2 mm and 3 mm; in assay [2] (PPG), 12 mm; in [2] (Water, listed as 246 THBA), 14 mm and 15 mm. The “effectiveness against S. aureus 6538” value with S. aureus 6538 was “effective”. Moreover, the “effectiveness against A. pullulans, a fungi” value in assay [3] was “effective”. In the assay with P. aeruginosa, the “effectiveness against P. aeruginosa” value is reported as “effective”. In assay [4], the “effectiveness against MRSE ATCC 51625” value is given as “effective”. Besides, the “effectiveness against Legionella 43662” value in the assay on Legionella 43662 is on record as “effective”. In addition, the “effectiveness against K. pneumoniae” value in the assay on K. pneumoniae is listed as “effective”. The “effectiveness against S. aureus 33591 (MRSA)” value with S. aureus 33591 (MRSA) is “effective”. Moreover, in assay [5], the “effectiveness against E. coli” value is reported as “effective”. In addition, the “antibiotic properties (summary)” value in the assay with all bacteria tested is on record as “broad spectrum antibiotic”.
For `O=C(O)CNC(=O)c1ccccc1` [hippuric acid], the “antibiotic properties (summary)” value with all bacteria tested is “little activity”.
For `CC1(C)S[C@@H]2[C@H](NC(=O)[C@H](N)c3ccc(O)cc3)C(=O)N2[C@H]1C(=O)O` [Amoxicillin, amoxicillin, reference compound], the “effectiveness against P. aeruginosa” value in the assay on P. aeruginosa is recorded as “no effect”.
